Assay results published in patent publication US20250270213A1, “PI3Ka INHIBITORS” (Synnovation Therapeutics, Inc., priority 2022, published 2025).
pIC50: −log10 of the molar value.

tested on: T47D (PIK3CA H1047R) cells; assay: pS473 AKT assay with 2.5% FBS, T47D cells; format: cell-based; conditions: Homo sapiens, pSer473 AKT, DMEM with 2.5% FBS, 2 h treatment, read-out: T47D_IC50
Outline: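 In-cell chemiluminescent ELISA of AKT Ser473 phosphorylation, using anti-pSer473 primary and HRP secondary antibodies on fixed cells. T47D (PIK3CA H1047R) cells had 2 h of compound treatment in DMEM containing 2.5% FBS; IC50 derived from dose-response.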

pIC50, > 6.00:
CCn1ncc2c3c(C(C)Nc4ccc(Cl)nc4-c4ccc(=O)n(C)c4)cc(C)cc3c(=O)n(C3CC3)c21 (stereo not shown) [Example 222, 9-[1-[[6-chloro-2-(1-methyl-6-oxo-3-pyridyl)-3-pyridyl]amino]ethyl]-4-cyclopropyl-3-ethyl-7-methyl-pyrazolo[3,4-c]isoquinolin-5-one]
CCn1ncc2c3c(C(C)Nc4ccc(Cl)nc4-c4ncn(C)n4)cc(C)cc3c(=O)n(C3CCOC3)c21 (stereo not shown) [Example 223, 9-[1-[[6-Chloro-2-(1-methyl-1,2,4-triazol-3-yl)-3-pyridyl]amino]ethyl]-3-ethyl-7-methyl-4-tetrahydrofuran-3-yl-pyrazolo[3,4-c]isoquinolin-5-one]
CCn1ncc2c3c(C(C)Nc4ccc(Cl)nc4-c4ncn(C)n4)cc(C)cc3c(=O)n(CCO)c21 (stereo not shown) [Example 224, 9-[1-[[6-Chloro-2-(1-methyl-1,2,4-triazol-3-yl)-3-pyridyl]amino]ethyl]-3-ethyl-4-(2-hydroxyethyl)-7-methyl-pyrazolo[3,4-c]isoquinolin-5-one]
CCn1ncc2c3c(CNc4ccc(Cl)nc4-c4ccc(C(=O)NC)c(F)c4)cc(C)cc3c(=O)n(C)c21 [Example 225, 4-(6-Chloro-3-(((3-ethyl-4,7-dimethyl-5-oxo-4,5-dihydro-3H-pyrazolo[3,4-c]isoquinolin-9-yl)methyl)amino)pyridin-2-yl)-2-fluoro-N-methylbenzamide]
CCn1ncc2c3c(C(C)Oc4ccc(Cl)nc4-c4c[nH]nc4C)cc(C)cc3c(=O)n(C)c21 (stereo not shown) [Example 226, 9-(1-((6-Chloro-2-(3-methyl-1H-pyrazol-4-yl)pyridin-3-yl)oxy)ethyl)-3-ethyl-4,7-dimethyl-3,4-dihydro-5H-pyrazolo[3,4-c]isoquinolin-5-one]
[2H]C([2H])([2H])n1c(=O)c2cc(C)cc(C(C)Nc3ccc(Cl)nc3-c3noc(=O)[nH]3)c2c2cnn(CC)c21 (stereo not shown) [Example 227, 3-(6-Chloro-3-((1-(3-ethyl-7-methyl-4-(methyl-d3)-5-oxo-4,5-dihydro-3H-pyrazolo[3,4-c]isoquinolin-9-yl)ethyl)amino)pyridin-2-yl)-1,2,4-oxadiazol-5(4H)-one]
CCn1ncc2c3c(C(C)Nc4ccc(Cl)nc4-c4ncn(C)n4)cc(C)cc3c(=O)n(C)c21 (stereo not shown) [Example 228, 9-(1-((6-chloro-2-(1-methyl-1H-1,2,4-triazol-3-yl)pyridin-3-yl)amino)ethyl)-3-ethyl-4,7-dimethyl-3,4-dihydro-5H-pyrazolo[3,4-c]isoquinolin-5-one]
CCn1ncc2c3c(C(C)Nc4ccc(Cl)nc4-c4nncn4C)cc(C)cc3c(=O)n(C)c21 (stereo not shown) [Example 229, 9-(1-((6-chloro-2-(4-methyl-1H-1,2,4-triazol-3-yl)pyridin-3-yl)amino)ethyl)-3-ethyl-4,7-dimethyl-3,4-dihydro-5H-pyrazolo[3,4-c]isoquinolin-5-one]
CCn1ncc2c3c(C(C)Nc4ccc(Cl)nc4-c4nnn[nH]4)cc(C)cc3c(=O)n(C)c21 (stereo not shown) [Example 230, 9-(1-((6-chloro-2-(1H-tetrazol-5-yl)pyridin-3-yl)amino)ethyl)-3-ethyl-4,7-dimethyl-3,4-dihydro-5H-pyrazolo[3,4-c]isoquinolin-5-one]
CCn1ncc2c3c(C(C)Nc4ccc(Cl)nc4-c4cnnn4C)cc(C)cc3c(=O)n(C)c21 (stereo not shown) [Example 231, 9-(1-((6-chloro-2-(1-methyl-1H-1,2,3-triazol-5-yl)pyridin-3-yl)amino)ethyl)-3-ethyl-4,7-dimethyl-3,4-dihydro-5H-pyrazolo[3,4-c]isoquinolin-5-one]
CCn1ncc2c3c(C(C)Nc4ccc(Cl)nc4-c4cnn(C5CCN(C(=O)N(C)C)CC5)c4)cc(C)cc3c(=O)n(C)c21 (stereo not shown) [Example 233, 4-(4-(6-chloro-3-((1-(3-ethyl-4,7-dimethyl-5-oxo-4,5-dihydro-3H-pyrazolo[3,4-c]isoquinolin-9-yl)ethyl)amino)pyridin-2-yl)-1H-pyrazol-1-yl)-N,N-dimethylpiperidine-1-carboxamide]
CCn1ncc2c3c(C(C)Nc4ccc(Cl)nc4-c4cnn(C5CCN(CCC#N)CC5)c4)cc(C)cc3c(=O)n(C)c21 (stereo not shown) [Example 234, 3-(4-(4-(6-chloro-3-((1-(3-ethyl-4,7-dimethyl-5-oxo-4,5-dihydro-3H-pyrazolo[3,4-c]isoquinolin-9-yl)ethyl)amino)pyridin-2-yl)-1H-pyrazol-1-yl)piperidin-1-yl)propanenitrile]
CCn1ncc2c3c(C(C)Nc4ccc(C)nc4-c4c[nH]nc4C)cc(C)cc3c(=O)n(C)c21 (stereo not shown) [Example 235, 3-ethyl-4,7-dimethyl-9-(1-((6-methyl-2-(3-methyl-1H-pyrazol-4-yl)pyridin-3-yl)amino)ethyl)-3,4-dihydro-5H-pyrazolo[3,4-c]isoquinolin-5-one]
CCn1ncc2c3c(C(C)Nc4ccc(Cl)nc4-c4ncn(C)n4)cc(C)cc3c(=O)n(CC(F)F)c21 (stereo not shown) [Example 236, 9-(1-((6-chloro-2-(1-methyl-1H-1,2,4-triazol-3-yl)pyridin-3-yl)amino)ethyl)-4-(2,2-difluoroethyl)-3-ethyl-7-methyl-3,4-dihydro-5H-pyrazolo[3,4-c]isoquinolin-5-one]
CCn1ncc2c3c(C(C)Nc4ccc(Cl)nc4-c4ccnc(C)c4)cc(C)cc3c(=O)n(CC(F)F)c21 (stereo not shown) [Example 237, 9-(1-((6-chloro-2′-methyl-[2,4′-bipyridin]-3-yl)amino)ethyl)-4-(2,2-difluoroethyl)-3-ethyl-7-methyl-3,4-dihydro-5H-pyrazolo[3,4-c]isoquinolin-5-one]
CCn1ncc2c3c(C(C)Nc4ccc(Cl)nc4-c4cncnc4)cc(C)cc3c(=O)n(CC(F)F)c21 (stereo not shown) [Example 238, 9-(1-((6-chloro-2-(pyrimidin-5-yl)pyridin-3-yl)amino)ethyl)-4-(2,2-difluoroethyl)-3-ethyl-7-methyl-3,4-dihydro-5H-pyrazolo[3,4-c]isoquinolin-5-one]
CCn1ncc2c3c(C(C)Nc4ccc(Cl)nc4-c4ccc(=O)n(C)c4)cc(C)cc3c(=O)n(CC(F)F)c21 (stereo not shown) [Example 239, 9-(1-((6-chloro-1′-methyl-6′-oxo-1′,6′-dihydro-[2,3′-bipyridin]-3-yl)amino)ethyl)-4-(2,2-difluoroethyl)-3-ethyl-7-methyl-3,4-dihydro-5H-pyrazolo[3,4-c]isoquinolin-5-one]
CCn1ncc2c3c(C(C)Nc4ccc(Cl)nc4-c4ccc(C(=O)NC)nc4)cc(C)cc3c(=O)n(CC(F)F)c21 (stereo not shown) [Example 240, 6-chloro-3-((1-(4-(2,2-difluoroethyl)-3-ethyl-7-methyl-5-oxo-4,5-dihydro-3H-pyrazolo[3,4-c]isoquinolin-9-yl)ethyl)amino)-N-methyl-[2,3′-bipyridine]-6′-carboxamide]
CCn1ncc2c3c(C(C)Nc4ccc(Cl)nc4C4CCN(C(C)=O)CC4)cc(C)cc3c(=O)n(C)c21 (stereo not shown) [Example 241, 9-[1-[[2-(1-Acetyl-4-piperidyl)-6-chloro-3-pyridyl]amino]ethyl]-3-ethyl-4,7-dimethyl-pyrazolo[3,4-c]isoquinolin-5-one]
Cc1cc(C(C)Nc2ccc(Cl)nc2-c2ncn(C)n2)c2c(c1)c(=O)n(C)c1c2cnn1CCO (stereo not shown) [Example 242, 9-(1-((6-Chloro-2-(1-methyl-1H-1,2,4-triazol-3-yl)pyridin-3-yl)amino)ethyl)-3-(2-hydroxyethyl)-4,7-dimethyl-3,4-dihydro-5H-pyrazolo[3,4-c]isoquinolin-5-one]
CNC(=O)c1ccc(-c2nc(Cl)ccc2NC(C)c2cc(C)cc3c(=O)n(C)c4c(cnn4CCO)c23)cc1F (stereo not shown) [Example 243, 4-(6-chloro-3-((1-(3-(2-hydroxyethyl)-4,7-dimethyl-5-oxo-4,5-dihydro-3H-pyrazolo[3,4-c]isoquinolin-9-yl)ethyl)amino)pyridin-2-yl)-2-fluoro-N-methylbenzamide]
Cc1cc(C(C)Nc2ccc(Cl)nc2-c2cnn(C)c2)c2c(c1)c(=O)n(C)c1c2cnn1CCO (stereo not shown) [Example 244, 9-(1-((6-chloro-2-(1-methyl-1H-pyrazol-4-yl)pyridin-3-yl)amino)ethyl)-3-(2-hydroxyethyl)-4,7-dimethyl-3,4-dihydro-5H-pyrazolo[3,4-c]isoquinolin-5-one]
Cc1cc(C(C)Nc2ccc(Cl)nc2N2CCC(O)CC2)c2c(c1)c(=O)n(C)c1c2cnn1CCO (stereo not shown) [Example 245, 9-(1-((6-chloro-2-(4-hydroxypiperidin-1-yl)pyridin-3-yl)amino)ethyl)-3-(2-hydroxyethyl)-4,7-dimethyl-3,4-dihydro-5H-pyrazolo[3,4-c]isoquinolin-5-one]
Cc1cc(C(C)Nc2ccc(Cl)nc2-c2ccc3ncccc3c2)c2c(c1)c(=O)n(C)c1c2cnn1CCO (stereo not shown) [Example 246, 9-(1-((6-chloro-2-(quinolin-6-yl)pyridin-3-yl)amino)ethyl)-3-(2-hydroxyethyl)-4,7-dimethyl-3,4-dihydro-5H-pyrazolo[3,4-c]isoquinolin-5-one]

same assay, conditions: pSer473 AKT, DMEM with 2.5% FBS, 2 h treatment, read-out: T47D_IC50

pIC50, > 6.00:
CCn1ncc2c3c(C(C)Nc4ccc(Cl)nc4-c4ccc(C(=O)O)cc4)cc(C)cc3c(=O)n(C)c21 (stereo not shown) [Example 232, 4-(6-chloro-3-((1-(3-ethyl-4,7-dimethyl-5-oxo-4,5-dihydro-3H-pyrazolo[3,4-c]isoquinolin-9-yl)ethyl)amino)pyridin-2-yl)benzoic acid]
